These results are taken from patent US10301288B2, “Kinase inhibitors” (Topivert Pharma Limited, priority 2013, dated 2019).

For one data set, the target named is hERG (Homo sapiens (Human), UniProt Q12809). Nature of the data set: hERG inhibition, IonWorks patch clamp. In kind it is cell-based. How it is done: Eight-point concentration curves were generated using serial 3-fold dilutions from the maximum final assay concentration (3 μM). Electrophysiological recordings were made from a Chinese Hamster Lung cell line stably expressing the full length hERG channel Single cell ionic currents were measured in the perforated patch clamp configuration (100 μg/mL) amphotericin) at room temperature (21-23° C.) using an IonWorks Quattro instrument. The internal solution contained (mM): 140 KCl, 1 MgCl2, 1 EGTA, 20 HEPES and was buffered to pH 7.3. The external solution contained (mM):138 NaCl, 2.7 KCl, 0.9 CaCl2, 0.5 MgCl2, 8 Na2HPO4, 1.5 KH2PO4, also buffered to pH 7.3. Cells were clamped at a holding potential of −70 mV for 30 s and then stepped to +40 mV for 1 s. This was followed by a hyperpolarising step of 1 s to −30 mV to evoke the hERG tail current. This sequence was repeated 5 times at a frequency of 0.25 Hz. Currents were measured from the tail step at the 5th pulse, and referenced to the holding current. Compounds were then incubated for 6-7 minutes prior to a second measurement of the hERG signal using an identical pulse train. Eight-point concentration curves were generated using serial 3-fold dilutions from the maximum final assay concentration (3 μM).
Sequence of hERG (Q12809 whole entry): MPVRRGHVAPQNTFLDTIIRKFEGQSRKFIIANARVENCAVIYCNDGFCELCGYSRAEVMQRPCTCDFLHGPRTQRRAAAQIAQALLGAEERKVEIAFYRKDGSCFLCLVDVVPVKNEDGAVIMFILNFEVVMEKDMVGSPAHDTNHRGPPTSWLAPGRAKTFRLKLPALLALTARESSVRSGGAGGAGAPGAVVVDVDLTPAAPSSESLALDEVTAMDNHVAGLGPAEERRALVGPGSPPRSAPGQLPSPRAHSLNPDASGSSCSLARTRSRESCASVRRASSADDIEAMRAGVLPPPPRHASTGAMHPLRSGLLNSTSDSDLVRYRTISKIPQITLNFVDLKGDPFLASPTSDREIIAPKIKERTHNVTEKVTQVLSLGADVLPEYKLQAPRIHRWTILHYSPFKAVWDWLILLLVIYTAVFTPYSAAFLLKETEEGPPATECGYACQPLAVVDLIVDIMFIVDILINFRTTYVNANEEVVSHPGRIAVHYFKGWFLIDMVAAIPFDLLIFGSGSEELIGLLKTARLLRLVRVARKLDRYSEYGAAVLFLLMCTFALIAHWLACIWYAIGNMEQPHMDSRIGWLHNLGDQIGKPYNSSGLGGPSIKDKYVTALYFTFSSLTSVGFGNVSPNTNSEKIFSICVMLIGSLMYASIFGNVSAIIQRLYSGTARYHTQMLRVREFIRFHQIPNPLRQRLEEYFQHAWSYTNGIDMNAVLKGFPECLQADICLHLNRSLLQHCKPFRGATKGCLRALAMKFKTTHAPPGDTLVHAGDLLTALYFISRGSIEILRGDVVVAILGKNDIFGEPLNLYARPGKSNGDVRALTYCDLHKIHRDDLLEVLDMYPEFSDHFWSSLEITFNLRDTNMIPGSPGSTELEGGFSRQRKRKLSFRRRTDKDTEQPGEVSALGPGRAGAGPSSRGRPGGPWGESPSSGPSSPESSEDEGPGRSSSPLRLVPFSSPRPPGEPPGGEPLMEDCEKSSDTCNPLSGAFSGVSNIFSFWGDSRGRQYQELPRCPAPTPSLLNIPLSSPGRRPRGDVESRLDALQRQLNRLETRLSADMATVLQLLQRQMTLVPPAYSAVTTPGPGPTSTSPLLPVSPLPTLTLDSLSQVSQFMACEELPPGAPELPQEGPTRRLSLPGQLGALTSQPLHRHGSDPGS

Data set [1] can be described thus: Hepatic microsomal stability, Cynomolgus macaque. To be noted: pooled liver microsomes, read-out: Mean intrinsic clearance. In kind it is in vitro ADME. How it is done: • Microsomal stability assays were performed with incubations of test compounds at 0.1 μM (n=2, final DMSO concentration 0.25%), and carried out using pooled human, […], rat and Cynomolgus macaque hepatic microsomes from Xenotech (Lots 1210153, 0810143 and 1110042, respectively) at 0.25 mg protein/mL in the presence of cofactor, NADPH. The incubations were performed at 37° C. with 100 μL aliquots taken from the incubation, at 0, 2, 5, 10 and 20 minutes (and, in the case of Cynomolgus macaque hepatic microsomes, 40 minutes) and reactions terminated by addition of 100 μL of acetonitrile containing carbamazepine as analytical internal standard. […] Half-life values were calculated from the relationship T1/2 (min)=−0.693/λ • where λ was the slope of the Ln concentration vs time curve. • The in vitro intrinsic clearance, Clint (mL/min/kg), was calculated and scaled to hepatic extraction ratios using the following scaling parameters and formulae.
Formulae Clint(tissue clearance) mL/min/kg=[0.693/t½ (min)]×[1/microsomal protein concentration mg/mL]×[mg microsomes/g liver]×[g liver/kg body weight] […] Half-life values were calculated from the relationship T1/2 (min)=−0.693/λ • where λ was the slope of the Ln concentration vs time curve. • Standard compounds testosterone, midazolam and 4-methylumbelliferone are included in the assay design.

The next data set deals with CYP3A4 (Homo sapiens (Human), UniProt P08684). The data set is described as follows: CYP450 time-dependent inhibition, CYP3A4. In kind it is in vitro ADME. How it is done:
CYP450 time-dependent inhibition (TDI) assays were performed with test compound at six test concentrations, 0.062 μM to 15 μM (n=2). The test compounds was pre-incubated for 30 minutes with pooled human hepatic microsomes in 0.1 M Tris buffer, pH 7.4, at 37° C. in the presence of cofactor NADPH. A parallel series of incubations (n=2) were prepared with no pre-incubation. Probe substrates were then added (with additional cofactor) and further incubated for the times specified. Concentrations of probe substrates used in the incubations have been optimised to maintain first order reaction conditions.
Reactions were terminated with acetonitrile containing analytical internal standard (carbamazepine), samples then centrifuged to remove microsomal protein and analysed using optimised LC/MS-MS conditions. The MS data were normalised to internal standard and compared to the appropriate solvent controls to determine the amount of metabolite formed from the probe substrate relative to the “uninhibited” controls. The results are quoted as % inhibition.
Variation in probe turnover between plate wells means that inhibition values recorded below 10-15% may not be significant.

In a further data set the target is c-Src (Homo sapiens (Human), UniProt P12931). Nature of the data set: c-Src enzyme inhibition (FRET). Format: biochemical. The method, boiled down:
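Z-LYTE FRET peptide assay: c-Src (3000 ng/mL) or Syk (2000 ng/mL) preincubated 2 h at room temperature with compound (4–0.004 μg/mL working solutions). Reaction was 1 h with peptide (8 μM solution) and ATP (800 μM c-Src, 60 μM Syk solutions), followed by 1 h protease development. Phosphorylation was read as the coumarin/fluorescein emission ratio.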

Another data set concerns the target B-Raf (V600e) (Homo sapiens (Human), UniProt P15056, V600E). The data set is described as follows: KINOMEscan enzyme binding assay, B-Raf (V600e). The method, then: Kinase enzyme binding activities of compounds disclosed herein may be determined using a proprietary assay which measures active site-directed competition binding to an immobilized ligand (Fabian, M. A. et al., Nature Biotechnol., 2005, 23:329-336). These assays may be conducted by DiscoverX (formerly Ambit; San Diego, Calif.). The percentage inhibition produced by incubation with a test compound may be calculated relative to the non-inhibited control.

Another data set concerns d-U937 cells. Nature of the data set: (a) LPS-induced TNFα/IL-8 release in d-U937 cells. Format: cell-based. To be noted: Homo sapiens, dU937 cells. How it is done:
U937 cells, a human monocytic cell line, are differentiated into macrophage-type cells by incubation with PMA (100 ng/mL) for 48 to 72 hr. Cells are pre-incubated with final concentrations of test compound for 2 hr and are then stimulated with LPS (0.1 μg/mL; from E. Coli: O111:B4, Sigma) for 4 hr. The supernatant is collected for determination of TNFα and IL-8 concentrations by sandwich ELISA (Duo-set, R&D systems). […] The relative 50% effective concentration (REC50) is determined from the resultant concentration-response curve. The inhibition of IL-8 production is calculated at each concentration of test compound by comparison with vehicle control.

Like-named read-outs stand apart in the source and are kept apart here.

Sequence of CYP3A4 (P08684 whole entry): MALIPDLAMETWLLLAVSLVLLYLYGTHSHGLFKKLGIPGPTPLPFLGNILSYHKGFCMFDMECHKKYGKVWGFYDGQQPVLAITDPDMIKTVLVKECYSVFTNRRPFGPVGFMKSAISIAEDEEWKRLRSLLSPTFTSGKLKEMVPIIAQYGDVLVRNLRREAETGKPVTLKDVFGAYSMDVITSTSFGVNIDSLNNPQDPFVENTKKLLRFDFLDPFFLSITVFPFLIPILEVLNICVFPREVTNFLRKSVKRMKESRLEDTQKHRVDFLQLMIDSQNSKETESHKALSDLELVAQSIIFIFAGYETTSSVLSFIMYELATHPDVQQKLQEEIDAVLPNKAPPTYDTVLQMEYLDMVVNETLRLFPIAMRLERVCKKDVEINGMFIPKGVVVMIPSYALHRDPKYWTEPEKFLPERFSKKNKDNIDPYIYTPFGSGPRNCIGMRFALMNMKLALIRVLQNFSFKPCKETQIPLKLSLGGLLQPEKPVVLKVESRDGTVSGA
Sequence of B-Raf (V600e) (P15056 whole entry V600E): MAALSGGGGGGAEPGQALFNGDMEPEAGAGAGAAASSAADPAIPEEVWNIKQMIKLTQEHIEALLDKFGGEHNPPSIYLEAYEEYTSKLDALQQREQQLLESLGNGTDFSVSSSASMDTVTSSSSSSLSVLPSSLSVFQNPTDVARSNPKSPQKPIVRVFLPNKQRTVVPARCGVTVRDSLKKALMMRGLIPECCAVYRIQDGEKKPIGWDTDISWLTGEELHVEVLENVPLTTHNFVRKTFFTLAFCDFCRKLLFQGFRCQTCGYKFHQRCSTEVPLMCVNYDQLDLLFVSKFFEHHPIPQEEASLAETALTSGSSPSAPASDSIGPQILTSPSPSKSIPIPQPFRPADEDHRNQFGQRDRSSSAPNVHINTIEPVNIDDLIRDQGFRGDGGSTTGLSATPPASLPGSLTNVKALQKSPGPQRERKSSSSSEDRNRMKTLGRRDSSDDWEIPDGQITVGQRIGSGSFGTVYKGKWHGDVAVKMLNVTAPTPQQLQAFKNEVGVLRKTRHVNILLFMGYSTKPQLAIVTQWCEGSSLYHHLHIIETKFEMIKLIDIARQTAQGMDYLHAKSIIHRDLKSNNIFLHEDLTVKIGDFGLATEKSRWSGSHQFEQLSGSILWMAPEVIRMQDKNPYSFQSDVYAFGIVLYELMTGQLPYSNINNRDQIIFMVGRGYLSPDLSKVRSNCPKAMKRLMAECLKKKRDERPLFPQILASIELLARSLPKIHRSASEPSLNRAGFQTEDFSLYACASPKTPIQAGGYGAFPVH
Sequence of c-Src (P12931 whole entry, looked up): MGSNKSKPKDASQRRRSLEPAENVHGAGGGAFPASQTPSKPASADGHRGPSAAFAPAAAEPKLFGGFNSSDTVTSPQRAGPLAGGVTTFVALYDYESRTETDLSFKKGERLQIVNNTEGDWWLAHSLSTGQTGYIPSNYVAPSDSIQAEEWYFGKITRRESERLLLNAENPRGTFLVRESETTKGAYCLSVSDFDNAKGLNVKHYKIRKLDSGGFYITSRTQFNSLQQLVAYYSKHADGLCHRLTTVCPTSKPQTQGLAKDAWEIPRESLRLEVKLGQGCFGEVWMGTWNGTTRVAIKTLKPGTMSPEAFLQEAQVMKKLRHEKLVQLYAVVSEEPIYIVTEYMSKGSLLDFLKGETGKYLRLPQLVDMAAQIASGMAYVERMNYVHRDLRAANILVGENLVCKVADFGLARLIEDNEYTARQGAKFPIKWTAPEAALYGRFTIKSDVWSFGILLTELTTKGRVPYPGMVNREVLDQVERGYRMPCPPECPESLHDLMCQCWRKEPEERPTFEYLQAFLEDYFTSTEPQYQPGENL

For the molecule `C#Cc1cc(Nc2nccc(Oc3ccc(NC(=O)Nc4cc(C(C)(C)C)nn4-c4ccc(C)cc4)c4ccccc34)n2)cc(C(=O)NCCOCCOCCOC)c1` [Example 2, 3-((4-((4-(3-(3-(tert-Butyl)-1-(p-tolyl)-1H-pyrazol-5-yl)ureido)naphthalen-1-yl)oxy)pyrimidin-2-yl)amino)-5-ethynyl-N-(2-(2-(2-methoxyethoxy)ethoxy)ethyl)-benzamide], the IC50 at hERG is above 3000 nM; on CYP3A4 (CYP3A4, 0 min preincubation) it was above 15000 nM; on CYP3A4 (CYP3A4, 30 min preincubation), 7700 nM; at c-Src, 11 nM; in the data set on d-U937 cells (read-out: IC50 for Inhibition of Cytokine Release, IL-8), 0.5 nM; in the data set with d-U937 cells (read-out: IC50 for Inhibition of Cytokine Release, TNFα), 0.5 nM. Moreover, on hERG (human, pH 7.3, 3 μM, read-out: inhibition of the hERG channel), the inhibition at 3 µM amounted to 0%. For the same molecule, the microsomal CLint at 0.1 μM in data set [1] was 445 µL/min/mg. Also, the inhibition at 0 min, 15 µM on CYP3A4 (human, pooled human liver microsomes, pH 7.4, CYP3A4, 0 min preincubation, 15 μM, read-out: 15 μM % Inh) is 2%. Besides, the inhibition at 30 min, 15 µM on CYP3A4 (human, pooled human liver microsomes, pH 7.4, CYP3A4, 30 min preincubation, 15 μM, read-out: 15 μM % Inh) was 52%. Further, the “effect on the binding of B-Raf (V600e) to its standard ligand” value on B-Raf (V600e) was “did not have any effect”.
